Measurements reported in ChEMBL document CHEMBL4732246, “Design, synthesis, and evaluation of a novel prodrug, a S-trityl--cysteine derivative targeting kinesin spindle protein” (Eur J Med Chem, 2021).

How the values were obtained:
[1] = test system: HCT-116; test: Cytotoxicity against human HCT-116 cells assessed as cell growth inhibition measured after 72 hrs by MTS assay; assay type: functional
[2] = test system: NCI-H460; test: Cytotoxicity against human NCI-H460 cells expressing low GGT assessed as cell growth inhibition measured after 72 hrs by MTS assay; assay type: functional
[3] = test system: A549; test: Cytotoxicity against human A549 cells overexpressing GGT assessed as cell growth inhibition measured after 72 hrs by MTS assay; assay type: functional
[4] = target: T1, Kinesin-like protein KIF11 (Homo sapiens, UniProt P52732); test: Inhibition C-terminal His-tagged KSP motor domain(1 to 369 residues) (unknown origin) expressed in bacteria assessed as inhibition of microtubule-stimulated ATPase activity preincubated for 30 mins followed by addition of ATP and measured after 15 mins by luciferase-derived luminiscence assay
T1 sequence (P52732 whole entry): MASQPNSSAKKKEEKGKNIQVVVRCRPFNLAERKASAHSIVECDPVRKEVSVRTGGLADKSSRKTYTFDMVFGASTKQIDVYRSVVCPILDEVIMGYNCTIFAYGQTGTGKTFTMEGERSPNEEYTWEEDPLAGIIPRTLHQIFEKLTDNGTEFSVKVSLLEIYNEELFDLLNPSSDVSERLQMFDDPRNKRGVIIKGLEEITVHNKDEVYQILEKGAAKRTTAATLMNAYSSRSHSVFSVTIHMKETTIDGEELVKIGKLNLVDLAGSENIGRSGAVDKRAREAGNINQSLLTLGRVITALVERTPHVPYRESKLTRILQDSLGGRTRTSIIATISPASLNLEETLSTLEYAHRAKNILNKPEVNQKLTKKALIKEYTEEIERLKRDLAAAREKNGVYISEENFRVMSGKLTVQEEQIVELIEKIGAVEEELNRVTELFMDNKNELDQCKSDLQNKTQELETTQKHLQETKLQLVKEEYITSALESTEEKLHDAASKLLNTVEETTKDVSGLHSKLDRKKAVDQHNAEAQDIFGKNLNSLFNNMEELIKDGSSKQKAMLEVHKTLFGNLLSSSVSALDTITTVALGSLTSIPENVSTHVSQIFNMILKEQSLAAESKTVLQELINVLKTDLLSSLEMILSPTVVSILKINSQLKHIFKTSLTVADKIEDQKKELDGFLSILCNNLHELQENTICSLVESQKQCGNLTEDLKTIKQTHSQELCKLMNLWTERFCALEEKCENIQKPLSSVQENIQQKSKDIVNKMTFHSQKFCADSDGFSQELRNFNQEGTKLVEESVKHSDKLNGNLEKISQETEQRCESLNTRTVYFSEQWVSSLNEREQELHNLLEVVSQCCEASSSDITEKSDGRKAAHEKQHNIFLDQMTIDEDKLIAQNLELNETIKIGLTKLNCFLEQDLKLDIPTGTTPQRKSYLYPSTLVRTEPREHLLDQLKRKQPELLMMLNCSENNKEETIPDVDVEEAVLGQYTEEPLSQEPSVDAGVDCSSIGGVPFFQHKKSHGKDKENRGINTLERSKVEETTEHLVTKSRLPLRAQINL

SMILES	GI50 [1] [nM]	GI50 [2] [nM]	GI50 [3] [nM]	IC50 [4] [nM]
N[C@@H](CSC1(c2ccc(C(F)(F)F)cc2)c2ccccc2CCc2ccccc21)C(=O)O	33	15	33	–
N[C@@H](CSC1(c2ccc(C(F)(F)F)cc2)c2ccccc2CCc2ccccc21)C(=O)NCc1ccccc1	282	–	–	358
NCCOCCOCCNC(=O)C(N)CSC1(c2ccc(C(F)(F)F)cc2)c2ccccc2CCc2ccccc21 (stereo not given)	63	–	–	42
CN(C)CCNC(=O)[C@@H](N)CSC1(c2ccc(C(F)(F)F)cc2)c2ccccc2CCc2ccccc21	115	–	–	56
N[C@@H](CSC1(c2ccc(C(F)(F)F)cc2)c2ccccc2CCc2ccccc21)C(=O)NCCN1CCCCC1	191	–	–	146
CC(C)(C)OC(=O)N[C@@H](CSC1(c2ccc(C(F)(F)F)cc2)c2ccccc2CCc2ccccc21)C(=O)O	> 1000	–	–	–
CC(=O)N[C@@H](CSC1(c2ccc(C(F)(F)F)cc2)c2ccccc2CCc2ccccc21)C(=O)O	> 1000	–	–	–
N[C@@H](CSC1(c2ccc(C(F)(F)F)cc2)c2ccccc2CCc2ccccc21)C(=O)NCCO	60	–	–	80
